Values quoted from earlier work, collected in article PMC10815991, “Membrane-Bound Redox Enzyme Cytochrome bd-I Promotes Carbon Monoxide-Resistant Escherichia coli Growth and Respiration” (International Journal of Molecular Sciences, 2024).
Like-named read-outs stand apart in the source and are kept apart here.

Experiments:
cytochrome bo3 = conditions: read-out: apparent Km(O2); cited from earlier work
cytochrome bd-II = conditions: read-out: apparent Km(O2); cited from earlier work
cytochrome bd-I heme d2+ = conditions: cited from earlier work

For `O=O` [O2], the Km (cytochrome bo3) is listed as 6 µM and the Km (cytochrome bd-II) is listed as 2 µM.

For nitric oxide [NO], the “koff, NO dissociation from heme d^2+” value (cytochrome bd-I heme d2+; ref 69) is given as 0.133 s⁻¹ and the “koff, NO dissociation from heme d^2+” value (cytochrome bd-I heme d2+; ref 70) is given as 0.163 s⁻¹.
